Laboratory results reported in patent publication US20240360194A1, “New Peptides as Potent and Selective GIP Receptor Agonists” (Sanofi, priority 2021, published 2024).
Converted amounts (≈) assume the structure as drawn. Numbered stars: 1 amine (or outer) side, 2 acyl side, 3 side chain; on linkers, the order of the positions; unused ones are H or OH. Square brackets hold non-standard residues; d marks the D form. Side chains are listed from the residue outwards. Ends that are not written are not given here. Peptide text beside a SMILES is read from it. * marks the point of attachment. ξ: configuration not given here. C18 diacid = O=C(O)CCCCCCCCCCCCCCCCC(=O)*; γGlu = O=C(O)[C@H](CCC(=O)[*:2])N[*:1]; tBuAla = CC(C)(C)C[C@H](N)C(=O)O; ξIva = CCC(C)(N)C(=O)O; AEEA = NCCOCCOCC(=O)O; Aib = CC(C)(N)C(=O)O

T1: human GIP receptor (Homo sapiens, UniProt P48546)
T1 construct: human adipocytes endogenously expressing the human GIP receptor; host or cells: human preadipocytes (Lonza) differentiated to adipocytes
T1 sequence (P48546 22-466): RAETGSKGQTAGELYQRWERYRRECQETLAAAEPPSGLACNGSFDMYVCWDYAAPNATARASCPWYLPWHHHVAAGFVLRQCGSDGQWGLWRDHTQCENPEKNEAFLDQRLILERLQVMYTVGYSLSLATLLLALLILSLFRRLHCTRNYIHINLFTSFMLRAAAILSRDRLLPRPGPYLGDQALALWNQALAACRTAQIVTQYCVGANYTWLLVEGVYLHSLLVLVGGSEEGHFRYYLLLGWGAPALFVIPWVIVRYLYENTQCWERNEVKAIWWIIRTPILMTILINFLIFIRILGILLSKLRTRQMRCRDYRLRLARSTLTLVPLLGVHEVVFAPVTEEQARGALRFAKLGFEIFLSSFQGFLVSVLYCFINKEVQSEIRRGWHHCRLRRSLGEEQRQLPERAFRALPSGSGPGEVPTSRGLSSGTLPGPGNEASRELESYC

T2: human GIP receptor (human, UniProt P48546 22-466)
T2 sequence (looked up): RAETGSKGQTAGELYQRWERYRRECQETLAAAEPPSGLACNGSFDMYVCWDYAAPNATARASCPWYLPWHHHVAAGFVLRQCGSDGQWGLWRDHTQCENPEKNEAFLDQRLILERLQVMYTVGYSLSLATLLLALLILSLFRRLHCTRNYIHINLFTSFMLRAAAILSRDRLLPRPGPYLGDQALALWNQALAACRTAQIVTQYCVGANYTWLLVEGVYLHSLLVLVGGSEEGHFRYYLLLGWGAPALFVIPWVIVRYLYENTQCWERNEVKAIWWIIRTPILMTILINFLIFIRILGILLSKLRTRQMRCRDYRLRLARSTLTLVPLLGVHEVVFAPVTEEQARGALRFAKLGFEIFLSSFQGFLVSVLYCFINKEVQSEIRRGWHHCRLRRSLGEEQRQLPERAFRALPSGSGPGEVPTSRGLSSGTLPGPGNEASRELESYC


Assays:
[1] = Solubility assessment (UHPLC-UV of supernatant, target 10 mg/ml); format: physicochemical; conditions: pH 7.4, Soluble amount
Experimental: Prior to the solubility measurement of a peptide batch, its purity was determined through UHPLC/MS.
Therefore, solutions from solid samples were prepared in a buffer system with a concentration of 10 mg/ml compound based on the previously determined % purity: • Solubility buffer system A) 100 mM phosphate buffer pH 7.4 • Solubility buffer system B) 8 mM phosphate buffer pH 7.4, 14 mg/ml propylene glycol, 5.5 mg/ml phenol • Solubility buffer system C) 100 mM phosphate buffer pH 7.4, 2.7 mg/ml m-cresol
UHPLC-UV was performed after 1 h of gentle agitation and storage at 5° C. overnight (24 h) from the supernatant, which was obtained after 15 min of centrifugation at 2500 RCF (relative centrifugal acceleration).
The different UV extinction coefficients of sample and reference peptide were calculated based on the different amino acid sequences and considered in the concentration calculation.
The analytical method used was Analytical UHPLC Method A.
Peptide samples were prepared in solubility buffer system A or C and solubility was assessed as described in Methods.

[2] = target: T1, human GIP receptor; test: In vitro cellular cAMP assay for GIP receptor efficacy (human adipocytes); format: cell-based; conditions: read-out: hGIPR Emax
Experimental: For this, one vial of human preadipocytes (˜10^6 cells; Lonza) was thawed in a T-75 cell culture dish. The cells were cultivated at 37° C., 5% CO2, 95% humidity in Preadipocyte Growth Medium with Supplement Mix from Promo Cell.
After 3 days, the cells were washed with PBS and 1.5 ml Trypsin, incubated for 4 min, then resuspended in medium, centrifugated for 10 min @ 300 rcf RT, resuspended again and distributed to four T-75 cell culture dishes. Again, the cells were cultivated at 37° C., 5% CO2, 95% humidity.
After 5 days, the cells were washed with PBS and 1.5 ml Trypsin, incubated for 4 min, then resuspended in medium, centrifugated for 10 min @ 300 rcf RT, resuspended again and sawn in T-75 dishes (2.5×10^6 cells per dish) in 15 ml Differentiation medium each.
The differentiation medium had the following composition: DMEM (Gibco), Ham's F10 (Gibco), 15 mM HEPES (Gibco), 3% FCS (PAA), 33 μM biotin (Sigma-Aldrich), 17 μM Pantothenate (Sigma-Aldrich), 0.1 μM human insulin (Sigma-Aldrich), 1 μM dexamethason (Sigma-Aldrich), 0.1 μM PPARgamma agonist (#R2408, Sigma-Aldrich), 0.6×Anti-Anti (#15240, ThermoFisher), 200 μM IBMX (AppliChem), and 0.01 μM L-thyroxine (Sigma-Aldrich).
After 6 days of differentiation, 5000 cells per well were dispensed on a 96-well plate (#CLS3694 from Corning®, Sigma-Aldrich). For measurement of cAMP generation, 25 μL of test compound was added to each well of the 96-well plate, followed by incubation for 30 min at room temperature.
The cAMP generated following test compound stimulation was determined using a kit from Cisbio Corp. based on HTRF (Homogenous Time Resolved Fluorescence). The cAMP assay was performed according to manufacturer's instructions (Cisbio).
The cAMP content of cells was determined using a kit from Cisbio Corp. based on HTRF (Homogenous Time Resolved Fluorescence).
After addition of HTRF reagents diluted in lysis buffer (kit components), the plates were incubated for 1 h, followed by measurement of the fluorescence ratio at 665/620 nm.

[3] = target: T2, human GIP receptor; test: cell-based or functional assay

| Molecule | solubility [1] [µg/mL] | Emax [2] [%] | EC50 hGIPR 0% HSA (cAMP, HEK-293) [3] [nM] | EC50 hGIPR 0.1% BSA (cAMP, HEK-293) [3] [nM] |
| --- | --- | --- | --- | --- |
| CC[C@H](C)[C@H](NC(=O)[C@H](Cc1ccccc1)NC(=O)[C@H](CCC(=O)O)NC(=O)[C@H](CCC(=O)O)NC(=O)[C@H](CCC(N)=O)NC(=O)[C@H](Cc1c[nH]cn1)NC(=O)[C@@H](NC(=O)[C@H](CCCNC(=N)N)NC(=O)[C@H](CC(=O)O)NC(=O)[C@H](CCCCNC(=O)COCCOCCNC(=O)COCCOCCNC(=O)CC[C@H](NC(=O)CCCCCCCCCCCCCCCCC(=O)O)C(=O)O)NC(=O)C(C)(C)NC(=O)[C@@H](NC(=O)[C@H](CO)NC(=O)[C@H](CC(C)C)NC(=O)[C@H](CC(=O)O)NC(=O)[C@H](CO)NC(=O)[C@@H](NC(=O)C(C)(CC)NC(=O)[C@@H](NC(=O)CNC(=O)[C@H](CCC(=O)O)NC(=O)C(C)(C)NC(=O)[C@@H](N)Cc1ccc(O)cc1)[C@@H](C)O)[C@@H](C)CC)[C@@H](C)CC)[C@@H](C)CC)C(=O)N[C@@H](CCC(=O)O)C(=O)N[C@@H](Cc1c[nH]c2ccccc12)C(=O)N[C@@H](CC(C)C)C(=O)N[C@@H](CC(C)C)C(=O)N[C@@H](C)C(=O)N[C@@H](CCC(N)=O)C(=O)NCC(=O)N1CCC[C@H]1C(=O)N[C@@H](CO)C(=O)N[C@@H](CO)C(=O)NCC(=O)N[C@@H](C)C(=O)N1CCC[C@H]1C(=O)N1CCC[C@H]1C(=O)N1CCC[C@H]1C(=O)N[C@@H](CO)C(N)=O (stereo partly drawn) [SEQ ID NO: 24, H2N-Y-Aib-E-G-T-Iva-I-S-D-L-S-I-Aib-K[{AEEA}2-gGlu-C18OH]-DRIHQEEFIEWLLAQGPSSGAPPPS-NH2] (H-Y[Aib]EGT[ξIva]ISDLSI[Aib]K([AEEA-AEEA-γGlu-C18 diacid])DRIHQEEFIEWLLAQGPSSGAPPPS-NH2) | 7800 (≈ 1570 µM) | 100 |  |  |
| Y[Aib]EGTFISDLSI[Aib]K([AEEA-AEEA-γGlu-C18 diacid])DRIHQEEFIEWL[tBuAla]AQGPSSGAPPPS-NH2 (N-terminus assumed; SMILES CC[C@H](C)[C@H](NC(=O)[C@H](Cc1ccccc1)NC(=O)[C@H](CCC(=O)O)NC(=O)[C@H](CCC(=O)O)NC(=O)[C@H](CCC(N)=O)NC(=O)[C@H](Cc1c[nH]cn1)NC(=O)[C@@H](NC(=O)[C@H](CCCNC(=N)N)NC(=O)[C@H](CC(=O)O)NC(=O)[C@H](CCCCNC(=O)COCCOCCNC(=O)COCCOCCNC(=O)CC[C@H](NC(=O)CCCCCCCCCCCCCCCCC(=O)O)C(=O)O)NC(=O)C(C)(C)NC(=O)[C@@H](NC(=O)[C@H](CO)NC(=O)[C@H](CC(C)C)NC(=O)[C@H](CC(=O)O)NC(=O)[C@H](CO)NC(=O)[C@@H](NC(=O)[C@H](Cc1ccccc1)NC(=O)[C@@H](NC(=O)CNC(=O)[C@H](CCC(=O)O)NC(=O)C(C)(C)NC(=O)[C@@H](N)Cc1ccc(O)cc1)[C@@H](C)O)[C@@H](C)CC)[C@@H](C)CC)[C@@H](C)CC)C(=O)N[C@@H](CCC(=O)O)C(=O)N[C@@H](Cc1c[nH]c2ccccc12)C(=O)N[C@@H](CC(C)C)C(=O)N[C@@H](CC(C)(C)C)C(=O)N[C@@H](C)C(=O)N[C@@H](CCC(N)=O)C(=O)NCC(=O)N1CCC[C@H]1C(=O)N[C@@H](CO)C(=O)N[C@@H](CO)C(=O)NCC(=O)N[C@@H](C)C(=O)N1CCC[C@H]1C(=O)N1CCC[C@H]1C(=O)N1CCC[C@H]1C(=O)N[C@@H](CO)C(N)=O) [SEQ ID NO: 33] |  |  | 0.00022 | 0.0644 |
